In EP1087941B9, “THIOLESTERS AND USES THEREOF” (THE UNITED STATES OF AMERICA, as represented by THE …, priority 1998, dated 1999):
Entries after “also recorded” stand apart in the source; their conditions may differ.

How the values were obtained:
[1] = target: T1, recombinant HIV-1 integrase (Human immunodeficiency virus type 1 group M subtype B, UniProt P03366); assay: Integrase 3' processing and strand transfer assay; format: biochemical; conditions: for IC50: Table 7, high dose test of 100 µM, read-out: Integrase I50
T1 construct: The ability of recombinant HIV-1 integrase; S. Hughes, ABL Basic Research NCI-FCRDC, Frederick MD (supplied, not a catalogue product)
Method: The 5-bromovaleroyl thioester, compound 44, and two 5-pyridiniovaleroyl thioesters, compounds 45 and 47, were analyzed in mechanistic and target-based assays. […] Assays for activity against HIV-1 reverse transcriptase rAdT (template/primer) and rCdG (template/primer) using recombinant HIV-1 reverse transcriptase (S. Hughes, ABL Basic Research NCI-FCRDC, Frederick MD) were performed as described by Rice (1997) supra. Substrate cleavage of recombinant HIV-1 protease in the presence of test compounds using an HPLC-based methodology with the artificial substrate Ala-Ser-Glu-Asn-Try- Pro-Ile-Val-amide (Multiple Peptide Systems, San Diego CA) was performed as described by Rice (1997) supra. The ability of recombinant HIV-1 integrase (S. Hughes, ABL Basic Research NCI-FCRDC, Frederick MD) to carry out 3' processing and strand transfer activities in the presence of test compounds was performed as described by Buckheit (1994) AIDS Res. Hum. Retroviruses 10:1497-1506, and Turpin (1998) Antimicrob. Agents Chemother. 42: 487-494.

[2] = target: T2, Virion-associated NCp7 proteins from cell-free HIV-1MN (Human immunodeficiency virus type 1 group M subtype B, UniProt P05888); assay: Intravirion NCp7 cross-linking, non-reducing Western blotting
T2 construct: an attack on the mature NCp7 retroviral zinc fingers in the cell-free virus; endogenous in cells
Method: The interaction of zinc finger inhibitors, such as the thiolesters of the invention, with cell-free virus can result in modification of intravirion NCp7 protein and loss of infectivity. Virion-associated NCp7 proteins from cell-free HIV-1MN were treated with thiolester compounds 44 and 45. They were also evaluated by non-reducing Western blotting using HIV-1 NCp7-specific antibodies. […] Cross-linking by compound 45 was due to formation of intermolecular disulfide bonds because reduction with 2-mercaptoethanol (β-ME) completely reversed the gel retardation.
(§1) Virion cross linking was performed as described by Rice (1995) Science 270:1194-1197 and Turpin (1997) Antiviral Chem. Chemother. 8:60-67. Briefly, highly purified HIV-1 MN (11.8 µg total protein) was incubated for 2 hour with concentrations of compound. Virions were concentrated and residual compound was removed by centrifugation (18,000 x g, 1 h, 4°C). The viral pellet was solubilized in 0.5 M Tris-HCl,(pH 6.8), 50% glycerol, 8% SDS and 0.4% bromophenol blue and proteins resolved by Western blotting. Western blotting to detect the expression of HIV-1 proteins in U1 cells or virus pellets for virion cross-linking experiments was carried out as described by Turpin (1996) J. Virol. 70:6180-6189. Briefly, 50 µg of total cellular protein for U1 experiments or the total virion pellet (11.8 µg total viral protein) for NCp7 cross linking studies was resolved on 4 to 20% polyacrylamide gels in SDS with Tris-Glycine (Novex, San Diego CA). Samples for reduced gels were boiled for 5 min in the presence of 5% β-ME prior to loading. Resolved proteins were electroblotted on to polyvinylidene difluoride (PVDF) membranes, and HIV-1 specific proteins were detected using a mixture of goat anti- HIV-1 NCp7 and p24 or anti-NCp7 for virion proteins alone (a kind gift of L. E. Henderson, AIDS Vaccine Program NCI-FCRDC, Frederick, MD). Western blots were developed using standard chemiluminescence methodologies, as produced and described by Dupont-NEN, Wilmington, DE.
Purified concentrated retrovirus and antisera against the purified NC protein of the virus can be used to test the ability of a specific compound to penetrate the virus and react with the NC protein by forming disulfide complexes in the core of the virus. Compound are mixed with the whole retrovirus under reaction conditions appropriate for the compound. The virus is then removed from the reagent by centrifugation and disrupted in, e.g., standard SDS-PAGE sample buffer with (reduced) and without (non-reduced) 2-mercaptoethanol. […] Thus, compounds of interest (i.e., those which cause cross-linking), including the thiolesters of the invention, reduce the amount of monomeric zinc finger protein detected.

Pr^55gag precursor = target: T3, Pr^55gag precursor (Human immunodeficiency virus type 1 group M subtype B, UniProt P03347); assay: Gag precursor cross-linking and processing in TNFα-induced U1 cells, Western blotting; format: cell-based, HIV-1; conditions: for cross-linking of viral precursor polyproteins: TNFα-induced U1 cells, Western blotting; for Pr^55gag precursor processing: after reduction with β-ME, compound 45 at 100 µM
T3 construct: Visualization of viral proteins from TNFα-induced U1 cells by electrophoretic separation and immunoblotting; endogenous in cells; host or cells: TNFα-induced U1 cells (integrated HIV-1 provirus)
Method: Thiolester compounds were also tested for their ability to inhibit HIV-1 replication in TNFα-induced U1 and ACH-2 cells. U1 cells were induced with 5 ng/ml of TNFα in the presence of various concentrations of the thiolesters 44, 45 or 47. Forty-eight hours later the cultures were characterized for virus p24 antigen production and cell viability. […] Compound 44 killed 60% of the cells at 200 µM. […] Precursor processing evaluation performed as described by Turpin (1997) Antiviral Chem. Chemother. 8:60-69. Thus, thiolester PATEs initiate intracellular disulfide cross-linking of precursor polyproteins during late phase virus assembly and mediate a direct virucidal effect via an attack on the mature NCp7 retroviral zinc fingers in the cell-free virus.
as §1

| SMILES | inhibition of HIV-1 integrase enzyme activity [1] | IC50 [1] | intravirion NCp7 cross-linking [2] | cross-linking of viral precursor polyproteins (Pr^55gag precursor) | Pr^55gag precursor processing (Pr^55gag precursor) |
| --- | --- | --- | --- | --- | --- |
| CC(=O)NS(=O)(=O)c1ccc(NC(=O)c2ccccc2SC(=O)CCCC[n+]2ccccc2)cc1 [Compound 45, N-[2-(5-pyridinio-valeroylthio)benzoyl]sulfacetamide bromide] | did not inhibit | > 100 µM | extensive cross-linking of NCp7; also recorded: strong cross-linker of intravirion NCp7 | induced cross-linking of viral precursor polyproteins | inhibited Pr^55gag precursor processing |
| CC(=O)NS(=O)(=O)c1ccc(NC(=O)c2ccccc2SC(=O)CCCCBr)cc1 [Compound 44, N-[2-(5-bromovaleroylthio)benzoyl]sulfacetamide] | did not inhibit | > 100 µM | very poor cross-linking agent | induced β-ME reversible alterations in the mobility of zinc finger containing HIV-1 precursor proteins |  |
| O=C(CCCC[n+]1ccccc1)Sc1ccccc1C(=O)Nc1ccc(S(=O)(=O)c2ccc([N+](=O)[O-])cc2)cc1 [Compound 47] | did not inhibit |  | did not effectively initiate NCp7 cross-linking | induced cross-linking of viral precursor polyproteins | inhibited Pr^55gag precursor processing |
